Data reported in patent publication US6461613B2, “Methods and compositions for the selective regulation of chorionic prostanoids” (priority 1993, dated 2002).
Ends that are not written are not given here.

Assays:
human term placenta [1] = experiment: Effect of dexamethasone and GnRH on prostanoid release from perifused human term placental explants; format: cell-based
Method: Medium 199 (x2) with Earles' Modified Salts, bicarbonate and L-glutamine without phenol red was purchased from Gibco (Chagrin Falls, Ohio). Penicillin, streptomycin, bovine serum albumin and Indomethacin were obtained from Sigma Chemicals (St. Louis, Mo.). Placental perifusion was performed essentially as described in Example 3.
Samples were stored at −20° C. until assayed for PGE, PGF, PGFM, Tx B2 or 6-keto-PGF1α. Recovery and stability of these prostanoids in this perifusion system and during storage were assessed by spiking the medium with prostanoids and perifusing it through empty chambers and collecting samples as described above. In addition, samples were frozen and thawed repeatedly and re-assayed. Prostanoid recovery and stability were nearly 100%. Thus, no data correction for procedural losses was done. Radioimmunoassays were performed as described in Example 1.
The perifusion system described at Examples 2 and 3 was used in the present study. […] It took one hour for the input medium to pass through the perifusion tubing and chamber and to be collected in the sample tube. Four replicated chambers were perifused with each of the three experimental media, while, in another four replicated chambers, the perifusion was continued with the control Medium 199.
Hormonal values for a given chamber were normalized to the fifth-hour prostanoid release for that chamber, expressed as a percent release over the fifth-hour release. […] Thus, the release of each chamber was related to functional competence at the time of treatment rather than to its mass.
The mean release for replicate chambers from a given placenta for each particular hormone in the presence of GnRH, dexamethasone, or GnRH and dexamethasone at each point was calculated. Similar calculations were done for the control chambers. The mean data for each treatment for the three different placentas were subjected to statistical analyses. Thus, the response for each placenta was weighed equally. Two-way analysis of variance was used to determine if there was significant main effect or interaction.
In addition, the cumulative release for each hormone from each placenta for each treatment was calculated. One-way analysis of variance was used to test for statistically significant effects of treatment. The points of significant variation were determined using Student-Newman-Keuls' test.

human term placenta [2] = experiment: Effect of enzyme inhibitors on prostanoid release from perifused human term placental explants (RIA); format: cell-based; conditions: indomethacin 50 μg/ml
Method: Radioimmunoassays were performed in a fashion similar to what has been previously described (Siler-Khodr et al., 1986, Biol. Reprod., 35:312) which is specifically incorporated herein for this purpose, with specific exception as noted below. A perifusion model (described in Examples 2 and 3) was employed to determine placental cell response. Media collected from the perifusion samples prepared from placental tissues were assayed. […] All the samples from a given perifusion (placenta) were determined in the same assay. At the beginning of the fifth hour of the perifusion, Medium 199 in the experimental chambers was changed to Medium 199 containing quinacrine (10 μM), EDTA (1 mM), NDGA (10 μM) or indomethacin (50 μg/ml). Four replicated chambers were perifused with control medium and each of the experimental media. This experimental design was repeated in three different perifusions using placental tissues from three different patients according to the procedure described in Example 3. […] Term placentas were obtained and placed on ice immediately after vaginal delivery from patients having spontaneous labor and delivery without any known obstetrical or medical complications. Tissues were obtained in accordance with a protocol approved by the Institutional Review Board. Within 30 minutes, the placental tissues were dissected of decidua, chorionic plates and large fetal vessels on ice. The placental tissues were cut into small fragments (approximately 25 pieces having a total weight of approximately 1 g), rinsed free of blood by repeated washing with ice cold normal saline until clear in color, and the tissue fragments placed in a 3-ml tissue chamber, placed in a 37° C. water bath. […] This medium is hereafter referred to as Medium 199. […] Perifusion was performed for two hours prior to initiation of sample collection. In this fashion, all tissues were thoroughly washed and equilibrated. Samples were collected hourly, beginning at the start of the third hour, into 12×75 mm glass tubes containing 0.1 ml indomethacin and 1100 μg/ml dimethyl sulfoxide [DMSO]. It took approximately one hour for the input medium to pass through the perifusion tubing and chamber and to be collected in the sample tube, thus the dead volume of the system was approximately 1 ml. Collection of the effluent of the 20 chambers was done simultaneously, using an ISCO fraction collector Retriever III adapted with a 20-tube rack and manifold. The prostanoid release for a given chamber was expressed as the increase over the fourth-hour prostanoid release for that chamber. Because there may be differences in the amounts of blood vessels and connective tissue among placental explants, the release expressed per unit weight results in high variance between chambers. […] Thus, the release of each chamber was related to its functional competence at the time of treatment rather than its mass. The mean release for replicate chambers from a given placenta for each particular prostanoid in the presence of arachidonic acid or each of the various enzyme inhibitors was calculated and then the mean data for each of the three different placentas was averaged at each time point. Thus, each placenta was weighted equally in the statistical analyses. Two-way analysis of variance of the average response for each prostanoid for each dose of arachidonic acid or each enzyme inhibitor studied, at each time point, was performed. The normalized data were tested for homogeneity using Cohrna's Q test, and no significant deviation was found. Thus, for each prostanoid and each treatment, where there was a significant main effect or interaction, Dunnett's comparison test was applied to determine the point(s) of significant difference as compared to the control. P<0.05 was considered to be statistically significant.

[3] = on the order of at least; cited from earlier work
[4] = seven hours of perifusion, dexamethasone 10^−8 M, GnRH 10^−7 M, compared to control

For `C[C@@H]1C[C@H]2[C@@H]3CCC4=CC(=O)C=C[C@]4(C)[C@@]3(F)[C@@H](O)C[C@]2(C)[C@@]1(O)C(=O)CO` [dexamethasone], the “release as percent of control” value (human term placenta [1]; dexamethasone 10^−8 M, seventh hour of incubation) was 68 % of its control release, the “cumulative release of TxB2” value (human term placenta [1]; seven hours of perifusion, dexamethasone 10^−8 M, GnRH 10^−7 M) was 62%±6% and the “cumulative release of 6-keto-PGF1α” value (human term placenta [1]; [4]) was 73%±7%. For the same molecule, the “cumulative release of PGE” value (human term placenta [1]; [4]) was 66%±4% and the “cumulative release of PGF” value (human term placenta [1]; [4]) was 71%±4%.
In the case of `COc1ccc2c(c1)c(CC(=O)O)c(C)n2C(=O)c1ccc(Cl)cc1` [indomethacin], the PGFM release (human term placenta [2]; after seven hours of perifusion) is reported as 51.8 % of the release from the control, the “PGFM release, effect” value (human term placenta [2]; after three hours of exposure) is reported as “not inhibited” and the 6-keto-PGF1α release (human term placenta [2]; continued perifusion) is reported as 26.3 % of the control. The PGE release (human term placenta [2]; continued perifusion) was 24.0 % of the control, the PGF release (human term placenta [2]; continued perifusion) was 9.6 % of the control and the TxB2 release (human term placenta [2]; continued perifusion) was 30.5 % of the control. For the same molecule, the 6-keto-PGF1α release (human term placenta [2]; three hours post-exposure) was 41.3 % of control, the PGE release (human term placenta [2]; three hours post-exposure) was 33.5 % of control and the PGF release (human term placenta [2]; three hours post-exposure) was 22.1 % of control. The TxB2 release (human term placenta [2]; three hours post-exposure) was 42.3 % of control and the “molar concentration necessary to produce pharmacological affects” value [3] was “at least 10^−3 molar (M)”.
In the case of “GnRH: gonadotropin-releasing hormone (QHWSYGLRPG; ends and bridges not checked; UniProt P01148 24-33, looked up)”, the “effect on TxB2 release” value (human term placenta [1]; GnRH 10^−7 M, within the first hour, continued throughout perifusion) is reported as “inhibition”.
